row,melting point [°C],Compound
1,173 to 176,"O=C(/C=C/c1ccc(O)cc1)CC(=O)/C=C/c1cccc(O)c1O [CU264, (1E,6E)-1-(2,3-dihydroxyphenyl)-7-(4-hydroxyphenyl)hepta-1,6-diene-3,5-dione]"
2,170 to 172,"COc1ccc(/C=C/C(=O)CC(=O)/C=C/c2cccc(O)c2O)cc1O [CU265, (1E,6E)-1-(2,3-dihydroxyphenyl)-7-(3-hydroxy-4-methoxyphenyl)hepta-1,6-diene-3,5-dione]"
3,155 to 157,"COc1ccc(/C=C/C(=O)CC(=O)/C=C/c2cccc(OC)c2O)cc1O [CU273, (1E,6E)-1-(2-hydroxy-3-methoxyphenyl)-7-(3-hydroxy-4-methoxyphenyl)hepta-1,6-diene-3,5-dione]"
4,94 to 99,"COc1cccc(O)c1/C=C/C(=O)CC(=O)/C=C/c1ccc(O)cc1 [CU275, (1E,6E)-1-(2-hydroxy-6-methoxyphenyl)-7-(4-hydroxyphenyl)hepta-1,6-diene-3,5-dione]"
5,212 to 214,"COc1ccc(/C=C/C(=O)CC(=O)/C=C/c2cc(Cl)cc(Cl)c2O)cc1O [CU276, (1E,6E)-1-(3,5-dichloro-2-hydroxyphenyl)-7-(3-hydroxy-4-methoxyphenyl)hepta-1,6-diene-3,5-dione]"
6,89 to 92,"CCN(CC)c1ccc(/C=C/C(=O)CC(=O)/C=C/c2ccc(O)c(OC)c2)c(O)c1 [CU277, (1E,6E)-1-(4-diethylamino-2-hydroxyphenyl)-7-(4-hydroxy-3-methoxyphenyl)hepta-1,6-diene-3,5-dione]"
7,101 to 108,"CCN(CC)c1ccc(/C=C/C(=O)CC(=O)/C=C/c2ccc(OC)c(O)c2)c(O)c1 [CU278, (1E,6E)-1-(4-diethylamino-2-hydroxyphenyl)-7-(3-hydroxy-4-methoxyphenyl)hepta-1,6-diene-3,5-dione]"
8,161 to 164,"COc1cc(/C=C/C(=O)CC(=O)/C=C/c2c(O)cccc2OC)ccc1O [CU279, (1E,6E)-1-(2-hydroxy-6-methoxyphenyl)-7-(4-hydroxy-3-methoxyphenyl)hepta-1,6-diene-3,5-dione]"
9,181 to 185,"COc1ccc(/C=C/C(=O)CC(=O)/C=C/c2c(O)cccc2OC)cc1O [CU280, (1E,6E)-1-(2-hydroxy-6-methoxyphenyl)-7-(3-hydroxy-4-methoxyphenyl)hepta-1,6-diene-3,5-dione]"
10,199 to 201,"O=C(/C=C/c1ccc(O)cc1)CC(=O)/C=C/c1cc(Cl)cc(Cl)c1O [CU281, (1E,6E)-1-(3,5-dichloro-2-hydroxyphenyl)-7-(4-hydroxyphenyl)hepta-1,6-diene-3,5-dione]"
11,147 to 152,"COc1ccc(/C=C/C(=O)CC(=O)/C=C/c2ccc(OC)c(O)c2)c(O)c1 [CU282, (1E,6E)-1-(2-hydroxy-4-methoxyphenyl)-7-(3-hydroxy-4-methoxyphenyl)hepta-1,6-diene-3,5-dione]"
12,89 to 93,"COCOc1cccc(O)c1/C=C/C(=O)CC(=O)/C=C/c1ccc(OC)c(O)c1 [CU313, (1E,6E)-1-[2-hydroxy-6-(methoxymethoxy)phenyl]-7-(3-hydroxy-4-methoxyphenyl)hepta-1,6-diene-3,5-dione]"
13,149 to 152,"COC(=O)c1ccc(/C=C/C(=O)CC(=O)/C=C/c2ccc(O)c(OC)c2)cc1 [CU316, (1E,6E)-1-(4-hydroxy-3-methoxyphenyl)-7-[4-(methoxycarbonyl)phenyl]hepta-1,6-diene-3,5-dione]"
14,173 to 178,"O=C(/C=C/c1ccc(O)cc1)CC(=O)/C=C/c1cc2ccccc2o1 [CU321, (1E,6E)-1-(benzofuran-2-yl)-7-(4-hydroxyphenyl)hepta-1,6-diene-3,5-dione]"
15,112 to 117,"O=C(/C=C/c1ccc(O)cc1)CC(=O)/C=C/c1cccc2cccnc12 [CU323, (1E,6E)-1-(4-hydroxyphenyl)-7-(quinolin-8-yl)hepta-1,6-diene-3,5-dione]"
16,272 to 275,"O=C(/C=C/c1ccc(O)cc1)CC(=O)/C=C/c1cccc2ncccc12 [CU324, (1E,6E)-1-(4-hydroxyphenyl)-7-(quinolin-5-yl)hepta-1,6-diene-3,5-dione]"
17,229 to 232,"O=C(/C=C/c1ccc(O)cc1)CC(=O)/C=C/c1ccc(-c2ccccn2)cc1 [CU328, (1E,6E)-1-(4-hydroxyphenyl)-7-[4-(pyridin-2-yl)phenyl]hepta-1,6-diene-3,5-dione]"
18,255 to 260,"O=C(/C=C/c1ccc(O)cc1)CC(=O)/C=C/c1ccc(-n2ccnc2)cc1 [CU329, (1E,6E)-1-(4-hydroxyphenyl)-7-[4-(1H-imidazol-1-yl)phenyl]hepta-1,6-diene-3,5-dione]"
19,243 to 249,"O=C(/C=C/c1ccc(O)cc1)CC(=O)/C=C/c1cn(Cc2ccccc2)c2ccccc12 [CU331, (1E,6E)-1-(1-benzyl-1H-indol-3-yl)-7-(4-hydroxyphenyl)hepta-1,6-diene-3,5-dione]"
20,132 to 138,"O=C(/C=C/c1ccc(O)cc1)CC(=O)/C=C/c1ccc(N2CCN(Cc3ccccc3)CC2)nc1 [CU332, (1E,6E)-1-[6-(4-benzylpiperazin-1-yl)pyridin-3-yl]-7-(4-hydroxyphenyl)hepta-1,6-diene-3,5-dione]"
21,167 to 172,"Cc1ccc(Oc2ccc(/C=C/C(=O)CC(=O)/C=C/c3ccc(O)cc3)cn2)cc1 [CU333, (1E,6E)-1-(4-hydroxyphenyl)-7-[6-(4-methylphenoxy)pyridin-3-yl]hepta-1,6-diene-3,5-dione]"

row,melting point [°C],Compound
1,159 to 165,"O=C(/C=C/c1ccc(O)cc1)CC(=O)/C=C/c1cccnc1N1CCOCC1 [CU337, (1E,6E)-1-(4-hydroxyphenyl)-7-(2-morpholinopyridin-3-yl)hepta-1,6-diene-3,5-dione]"
2,144 to 150,"Cc1ccc(-n2cccc2/C=C/C(=O)CC(=O)/C=C/c2ccc(O)cc2)cc1 [CU338, (1E,6E)-1-(4-hydroxyphenyl)-7-[1-(4-methylphenyl)-1H-pyrrol-2-yl]hepta-1,6-diene-3,5-dione]"
3,180 to 185,"Cc1ccc(Oc2ncccc2/C=C/C(=O)CC(=O)/C=C/c2ccc(O)cc2)cc1 [CU340, (1E,6E)-1-(4-hydroxyphenyl)-7-[2-(4-methylphenoxy)pyridin-3-yl]hepta-1,6-diene-3,5-dione]"
4,211 to 216,"O=C(/C=C/c1ccc(O)cc1)CC(=O)/C=C/c1ccc2[nH]nnc2c1 [CU346, (1E,6E)-1-(1H-benzotriazol-5-yl)-7-(4-hydroxyphenyl)hepta-1,6-diene-3,5-dione]"
5,251 to 255,"O=C(/C=C/c1ccc(O)cc1)CC(=O)/C=C/c1ccc2nccnc2c1 [CU348, (1E,6E)-1-(4-hydroxyphenyl)-7-(quinoxalin-6-yl)hepta-1,6-diene-3,5-dione]"
6,148 to 152,"O=C(/C=C/c1ccc(O)cc1)CC(=O)/C=C/c1ccc2[nH]ncc2c1 [CU349, (1E,6E)-1-(4-hydroxyphenyl)-7-(1H-indazol-5-yl)hepta-1,6-diene-3,5-dione]"
7,184 to 187,"O=C(/C=C/c1ccc2c(c1)OCCO2)CC(=O)/C=C/c1ccc2c(c1)OCCO2 [CU356, (1E,6E)-1,7-bis(1,4-benzodioxan-6-yl)hepta-1,6-diene-3,5-dione]"
8,147 to 151,"COc1cc(O)cc(/C=C/C(=O)CC(=O)/C=C/c2cc(O)cc(OC)c2)c1 [CU358, (1E,6E)-1,7-bis(3-hydroxy-5-methoxyphenyl)hepta-1,6-diene-3,5-dione]"
9,248 to 254,"O=C(/C=C/c1ccc(O)cc1Cl)CC(=O)/C=C/c1ccc(O)cc1Cl [CU362, (1E,6E)-1,7-bis(2-chloro-4-hydroxyphenyl)hepta-1,6-diene-3,5-dione]"
10,62 to 65,"COc1c(O)cccc1/C=C/C(=O)CC(=O)/C=C/c1cccc(O)c1OC [CU363, (1E,6E)-1,7-bis(3-hydroxy-2-methoxyphenyl)hepta-1,6-diene-3,5-dione]"
11,192 to 195,"O=C(/C=C/c1cccnc1N1CCOCC1)CC(=O)/C=C/c1cccnc1N1CCOCC1 [CU366, (1E,6E)-1,7-bis(2-morpholinopyridin-3-yl)hepta-1,6-diene-3,5-dione]"
12,193 to 196,"O=C(/C=C/c1ccc(Oc2ccccc2)cc1)CC(=O)/C=C/c1ccc(Oc2ccccc2)cc1 [CU370, (1E,6E)-1,7-bis(4-phenoxyphenyl)hepta-1,6-diene-3,5-dione]"
13,185 to 190,"Cc1ccc(Oc2ccc(/C=C/C(=O)CC(=O)/C=C/c3ccc(Oc4ccc(C)cc4)nc3)cn2)cc1 [CU378, (1E,6E)-1,7-bis[6-(4-methylphenoxy)pyridin-3-yl]hepta-1,6-diene-3,5-dione]"
14,188 to 196,"COc1ccc(O)cc1/C=C/C(=O)CC(=O)/C=C/c1cc(O)ccc1OC [CU380, (1E,6E)-1,7-bis(5-hydroxy-2-methoxyphenyl)hepta-1,6-diene-3,5-dione]"
15,263 to 266,"O=C(/C=C/c1ccc2[nH]ccc2c1)CC(=O)/C=C/c1ccc2[nH]ccc2c1 [CU382, (1E,6E)-1,7-bis(1H-indol-5-yl)hepta-1,6-diene-3,5-dione]"
16,170 to 174,"O=C(/C=C/c1cccc2ncccc12)CC(=O)/C=C/c1cccc2ncccc12 [CU384, (1E,6E)-1,7-bis(quinolin-5-yl)hepta-1,6-diene-3,5-dione]"
17,150 to 155,"O=C(/C=C/c1cccnc1N1CCN(Cc2ccccc2)CC1)CC(=O)/C=C/c1cccnc1N1CCN(Cc2ccccc2)CC1 [CU385, (1E,6E)-1,7-bis[2-(4-benzylpiperazin-1-yl)pyridin-3-yl]hepta-1,6-diene-3,5-dione]"
18,212 to 217,"CN1CCN(c2ccc(/C=C/C(=O)CC(=O)/C=C/c3ccc(N4CCN(C)CC4)cc3)cc2)CC1 [CU386, (1E,6E)-1,7-bis[4-(4-methylpiperazin-1-yl)phenyl]hepta-1,6-diene-3,5-dione]"
19,203 to 208,"O=C(/C=C/c1ccc(O)c(Cl)c1)CC(=O)/C=C/c1ccc(O)c(Cl)c1 [CU387, (1E,6E)-1,7-bis(3-chloro-4-hydroxyphenyl)hepta-1,6-diene-3,5-dione]"
20,151 to 155,"Cc1ccc(-n2cccc2/C=C/C(=O)CC(=O)/C=C/c2cccn2-c2ccc(C)cc2)cc1 [CU389, (1E,6E)-1,7-bis[1-(4-methylphenyl)-1H-pyrrol-2-yl]hepta-1,6-diene-3,5-dione]"
